The text below walks through data of patent publication US20260356819A1, “OXOISOINDOLINYL-SUBSTITUTED […] DERIVATIVE AND USE THEREOF” (GLUETACS THERAPEUTICS (SHANGHAI) CO., LTD., priority 2023, published 2026).

For one experiment, the system named is MGC803 cells. The experiment is described as follows: Inhibition of proliferation of gastric cancer cells MGC803 (cell viability assay, 96 h). Format: cell-based, human. Particulars: read-out: inhibitory activity (IC50) against tumor cells proliferation, MGC803. The procedure:
The tumor cells used herein were cultured in a cell culture medium listed in table 2 at 37 °C in an incubator with 5% CO2. Prior to experimentation, all cell lines used were correctly identified by STR profiling, and tested negative for Mycoplasma contamination using a Mycoplasma detection kit through routine screenings.
The IC50 values of the compounds of the present disclosure (including the compounds in Table 1, and Examples 1-498) were determined using the CellTiter-Meiluncell Luminescent Cell Viability Assay Kit from Dalian Meilun Biotech Co., Ltd. The detailed procedure is as follows: Tumor cells were seeded in 96-well cell culture plates at the densities specified in Table 3. On the following day, the test compounds of the present disclosure were subjected to serial dilution. […] Subsequently, 0.5 μL of the test compound dilution was transferred into the 96-well plate containing the cells, with each well containing 100 μL of cell culture medium. […] Into the 96-well plate, the diluted test compounds and corresponding detection reagents were added, resulting in final test compound concentrations of 500 nM and 10 nM, respectively. The experimental procedure is described below using the diluted 2 μM test compound as an example.
0.5 μL of the aforementioned diluted compound of the present disclosure (including the compounds in Table 1, and Examples 1-498) was added to the seeded cells in 100 μL of medium, yielding a final test compound concentration of 10 nM. After the cells were treated with the compounds of the present disclosure for a specified period, the cell viability assay reagent was added to the culture medium according to the kit's instructions to determine cell viability. […] All controls were treated using the same procedure as the compounds of the present disclosure. The growth inhibition curves for the compounds of the present disclosure were plotted using Prism GraphPad software, and the IC50 values were calculated therefrom.

A further experiment concerns the target T1, GSPT1 (Homo sapiens, UniProt P15170+Q96SW2).
T1 construct: The supernatant was aspirated as the extracted total cell protein; endogenous in cells; host or cells: human peripheral blood mononuclear cells (hPBMCs)
Put plainly: Western blot degradation of GSPT1 in hPBMCs (24 h). Format: cell-based. Particulars: compounds at 50 nM and 500 nM. In outline: (§1)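 hPBMCs (1×10^6 cells/mL) were treated with compound at 50 nM and 500 nM for 24 h, lysed in RIPA with protease inhibitors and analysed by SDS-PAGE/Western blot. Band grayscale, normalised to internal control, gave protein remaining (%); DC50 estimated versus DMSO bands.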
A general note: A western blot detects proteins with antibodies after separation by electrophoresis.

The target of a further experiment is T2, IKZF1 (Homo sapiens, UniProt Q13422+Q96SW2).
T2 construct: The supernatant was aspirated as the extracted total cell protein; endogenous in cells; host or cells: human peripheral blood mononuclear cells (hPBMCs)
T2 sequence (Q13422 whole entry): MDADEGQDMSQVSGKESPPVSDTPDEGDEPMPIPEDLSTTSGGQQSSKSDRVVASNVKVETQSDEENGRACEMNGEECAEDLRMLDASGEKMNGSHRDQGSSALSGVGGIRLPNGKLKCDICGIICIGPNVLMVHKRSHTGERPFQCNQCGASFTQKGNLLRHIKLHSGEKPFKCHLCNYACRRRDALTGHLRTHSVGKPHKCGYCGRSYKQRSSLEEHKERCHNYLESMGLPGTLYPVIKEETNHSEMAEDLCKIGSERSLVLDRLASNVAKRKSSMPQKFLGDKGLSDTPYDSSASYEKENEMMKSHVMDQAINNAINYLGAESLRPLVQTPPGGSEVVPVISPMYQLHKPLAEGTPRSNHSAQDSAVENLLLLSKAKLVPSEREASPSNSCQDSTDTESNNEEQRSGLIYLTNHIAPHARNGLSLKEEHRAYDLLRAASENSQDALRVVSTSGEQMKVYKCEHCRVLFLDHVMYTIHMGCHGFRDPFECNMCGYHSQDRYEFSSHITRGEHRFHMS
T2 sequence (Q96SW2 whole entry): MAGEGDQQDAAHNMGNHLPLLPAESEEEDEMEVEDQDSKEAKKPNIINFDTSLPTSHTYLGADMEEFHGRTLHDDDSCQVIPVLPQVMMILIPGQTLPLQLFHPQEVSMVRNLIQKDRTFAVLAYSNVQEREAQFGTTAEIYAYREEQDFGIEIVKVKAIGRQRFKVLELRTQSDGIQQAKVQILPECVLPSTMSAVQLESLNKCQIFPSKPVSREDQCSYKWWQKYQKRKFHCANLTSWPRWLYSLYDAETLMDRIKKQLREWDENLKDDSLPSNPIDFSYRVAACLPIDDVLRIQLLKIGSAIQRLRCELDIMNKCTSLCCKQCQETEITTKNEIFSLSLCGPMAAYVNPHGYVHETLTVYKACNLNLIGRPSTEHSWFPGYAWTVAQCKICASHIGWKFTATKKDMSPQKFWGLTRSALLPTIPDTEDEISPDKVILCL
T2 sequence (Q16531 whole entry partner): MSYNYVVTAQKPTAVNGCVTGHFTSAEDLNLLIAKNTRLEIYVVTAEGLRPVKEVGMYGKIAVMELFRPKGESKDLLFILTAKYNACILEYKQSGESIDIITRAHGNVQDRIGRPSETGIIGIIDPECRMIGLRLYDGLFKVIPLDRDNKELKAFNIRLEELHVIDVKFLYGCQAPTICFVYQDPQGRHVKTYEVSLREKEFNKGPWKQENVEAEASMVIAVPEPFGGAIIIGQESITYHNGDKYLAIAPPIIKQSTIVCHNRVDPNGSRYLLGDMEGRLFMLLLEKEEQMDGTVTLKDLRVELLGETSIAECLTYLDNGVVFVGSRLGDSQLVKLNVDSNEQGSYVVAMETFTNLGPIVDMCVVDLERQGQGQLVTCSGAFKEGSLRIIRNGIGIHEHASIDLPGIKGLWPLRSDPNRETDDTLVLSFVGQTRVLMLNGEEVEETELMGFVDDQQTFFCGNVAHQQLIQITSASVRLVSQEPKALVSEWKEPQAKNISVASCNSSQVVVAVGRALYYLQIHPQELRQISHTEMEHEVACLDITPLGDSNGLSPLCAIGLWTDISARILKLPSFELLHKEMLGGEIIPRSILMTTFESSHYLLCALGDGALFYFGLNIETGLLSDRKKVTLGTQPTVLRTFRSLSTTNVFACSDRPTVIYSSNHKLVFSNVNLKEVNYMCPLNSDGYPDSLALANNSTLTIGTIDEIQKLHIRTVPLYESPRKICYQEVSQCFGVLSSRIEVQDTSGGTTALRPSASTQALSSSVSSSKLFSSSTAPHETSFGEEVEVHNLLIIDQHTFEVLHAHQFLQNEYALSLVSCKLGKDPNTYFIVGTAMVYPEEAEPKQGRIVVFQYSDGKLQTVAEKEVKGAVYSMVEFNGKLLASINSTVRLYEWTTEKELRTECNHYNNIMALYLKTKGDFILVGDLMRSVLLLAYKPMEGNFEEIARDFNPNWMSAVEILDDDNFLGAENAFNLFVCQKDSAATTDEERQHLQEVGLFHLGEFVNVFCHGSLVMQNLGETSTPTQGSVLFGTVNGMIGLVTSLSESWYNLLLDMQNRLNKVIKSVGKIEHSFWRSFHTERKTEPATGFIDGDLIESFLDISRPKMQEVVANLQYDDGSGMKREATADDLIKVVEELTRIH
Put plainly: Western blot degradation of IKZF1 in hPBMCs (24 h). The format is cell-based. As to conditions: compounds at 50 nM and 500 nM. In outline: as §1

For another experiment, the system named is Jurkat cells. The experiment is described as follows: Inhibition of proliferation of T lymphocytic leukemia cells Jurkat (cell viability assay, 96 h). Format: cell-based, human. Particulars: read-out: inhibitory activity (IC50) against tumor cells proliferation, Jurkat.
Another experiment has as its target T3, IKZF3 (Homo sapiens, UniProt Q96SW2+Q9UKT9).
T3 construct: The supernatant was aspirated as the extracted total cell protein; endogenous in cells; host or cells: human peripheral blood mononuclear cells (hPBMCs)
Put plainly: Western blot degradation of IKZF3 in hPBMCs (24 h). The format is cell-based. As to conditions: compounds at 50 nM and 500 nM. In outline: as §1

The target of another experiment is T4, CK1α (Homo sapiens, UniProt P48729+Q96SW2).
T4 construct: The supernatant was aspirated as the extracted total cell protein; endogenous in cells; host or cells: human peripheral blood mononuclear cells (hPBMCs)
T4 sequence (P48729 whole entry): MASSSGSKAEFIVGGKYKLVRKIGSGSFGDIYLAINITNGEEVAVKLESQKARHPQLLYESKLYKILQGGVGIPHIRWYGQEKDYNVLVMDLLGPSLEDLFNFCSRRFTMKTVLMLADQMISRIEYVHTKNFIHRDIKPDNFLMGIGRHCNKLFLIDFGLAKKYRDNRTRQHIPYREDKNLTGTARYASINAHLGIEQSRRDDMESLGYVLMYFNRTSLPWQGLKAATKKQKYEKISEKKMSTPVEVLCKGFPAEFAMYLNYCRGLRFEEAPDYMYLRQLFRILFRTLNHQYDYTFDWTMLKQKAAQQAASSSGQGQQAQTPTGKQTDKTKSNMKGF
T4 sequence (Q96SW2 whole entry): as the sequence (Q96SW2 whole entry) above
T4 sequence (Q16531 whole entry partner): as the sequence (Q16531 whole entry partner) above
Put plainly: Western blot degradation of CK1α in hPBMCs (24 h). Format: cell-based. Particulars: compounds at 50 nM and 500 nM. In outline:
as §1

A further experiment has as its target T5, WEE1 (Homo sapiens, UniProt P30291+Q96SW2).
T5 construct: The supernatant was aspirated as the extracted total cell protein; endogenous in cells; host or cells: human peripheral blood mononuclear cells (hPBMCs)
The experiment is described as follows: Western blot degradation of WEE1 in hPBMCs (24 h). The format is cell-based. As to conditions: compounds at 50 nM and 500 nM. In outline: as §1

A further experiment deals with MM.1S cells. Put plainly: Inhibition of proliferation of multiple myeloma cells MM.1S (cell viability assay, 96 h). Format: cell-based, human. Particulars: read-out: inhibitory activity (IC50) against tumor cells proliferation, MM.1S.
The next experiment has as its target T6, IKZF2 (Homo sapiens, UniProt Q96SW2+Q9UKS7).
T6 construct: The supernatant was aspirated as the extracted total cell protein; endogenous in cells; host or cells: human peripheral blood mononuclear cells (hPBMCs)
Put plainly: Western blot degradation of IKZF2 in hPBMCs (24 h). Format: cell-based. Particulars: compounds at 50 nM and 500 nM. In outline:
as §1

T5 sequence (P30291 whole entry): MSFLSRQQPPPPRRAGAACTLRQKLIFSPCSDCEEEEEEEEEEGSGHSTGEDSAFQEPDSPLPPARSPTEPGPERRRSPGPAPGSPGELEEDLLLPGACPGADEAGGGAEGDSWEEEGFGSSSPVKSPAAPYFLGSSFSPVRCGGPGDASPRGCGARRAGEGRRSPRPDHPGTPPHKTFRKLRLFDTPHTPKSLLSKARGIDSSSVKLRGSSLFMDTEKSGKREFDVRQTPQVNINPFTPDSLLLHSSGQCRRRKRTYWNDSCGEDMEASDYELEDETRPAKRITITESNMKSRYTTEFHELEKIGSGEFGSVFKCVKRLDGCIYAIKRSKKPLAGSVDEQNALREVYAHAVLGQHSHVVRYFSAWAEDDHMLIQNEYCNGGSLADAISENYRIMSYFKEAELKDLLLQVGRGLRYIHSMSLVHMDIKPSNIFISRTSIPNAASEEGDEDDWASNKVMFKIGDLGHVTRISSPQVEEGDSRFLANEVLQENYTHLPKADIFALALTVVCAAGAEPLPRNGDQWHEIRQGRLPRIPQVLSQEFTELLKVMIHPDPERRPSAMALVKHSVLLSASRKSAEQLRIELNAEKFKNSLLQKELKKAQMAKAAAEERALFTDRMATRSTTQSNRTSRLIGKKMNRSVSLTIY
T5 sequence (Q96SW2 whole entry): as the sequence (Q96SW2 whole entry) above
T5 sequence (Q16531 whole entry partner): as the sequence (Q16531 whole entry partner) above
T6 sequence (Q9UKS7 whole entry): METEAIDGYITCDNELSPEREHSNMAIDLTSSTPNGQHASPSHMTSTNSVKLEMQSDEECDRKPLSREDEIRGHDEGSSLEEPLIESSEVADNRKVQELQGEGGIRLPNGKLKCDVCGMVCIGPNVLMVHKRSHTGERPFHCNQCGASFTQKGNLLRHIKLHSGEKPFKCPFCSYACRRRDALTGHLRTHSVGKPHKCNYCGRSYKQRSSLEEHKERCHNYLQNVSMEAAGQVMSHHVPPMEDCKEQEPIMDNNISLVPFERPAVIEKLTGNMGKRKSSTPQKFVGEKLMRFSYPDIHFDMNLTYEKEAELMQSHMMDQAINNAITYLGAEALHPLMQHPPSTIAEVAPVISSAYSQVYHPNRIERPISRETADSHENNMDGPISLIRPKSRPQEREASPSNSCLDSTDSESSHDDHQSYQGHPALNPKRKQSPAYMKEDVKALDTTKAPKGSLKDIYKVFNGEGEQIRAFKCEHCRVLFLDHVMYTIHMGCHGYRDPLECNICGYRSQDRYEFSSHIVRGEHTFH
T6 sequence (Q96SW2 whole entry): as the sequence (Q96SW2 whole entry) above
T6 sequence (Q16531 whole entry partner): as the sequence (Q16531 whole entry partner) above
T3 sequence (Q9UKT9 whole entry): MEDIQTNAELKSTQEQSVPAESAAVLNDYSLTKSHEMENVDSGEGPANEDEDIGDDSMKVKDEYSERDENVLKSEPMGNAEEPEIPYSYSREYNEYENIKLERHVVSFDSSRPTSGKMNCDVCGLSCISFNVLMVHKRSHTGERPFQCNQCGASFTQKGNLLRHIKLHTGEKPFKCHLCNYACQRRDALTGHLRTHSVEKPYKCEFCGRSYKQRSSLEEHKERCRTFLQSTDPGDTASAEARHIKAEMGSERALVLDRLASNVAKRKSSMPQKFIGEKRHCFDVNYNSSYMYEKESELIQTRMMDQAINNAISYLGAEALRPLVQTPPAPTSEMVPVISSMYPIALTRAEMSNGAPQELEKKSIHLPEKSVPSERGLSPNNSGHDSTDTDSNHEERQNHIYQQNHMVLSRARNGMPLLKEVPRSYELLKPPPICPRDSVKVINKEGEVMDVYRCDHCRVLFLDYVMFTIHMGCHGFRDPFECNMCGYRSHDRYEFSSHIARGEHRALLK
T3 sequence (Q96SW2 whole entry): as the sequence (Q96SW2 whole entry) above
T3 sequence (Q16531 whole entry partner): as the sequence (Q16531 whole entry partner) above

With `O=C1CCN(N2Cc3cc(CN4CC=C(c5cccs5)CC4)ccc3C2=O)C(=O)N1` [GT-04868, 1-(1-oxo-5-((4-(thiophen-2-yl)-3,6-dihydropyridin-1(2H)-yl)methyl)isoindolin-2-yl)dihydropyrimidine-2,4(1H,3H)-dione], the IC50 with MGC803 cells is 300 to 500 nM; in the experiment with Jurkat cells, 300 to 500 nM; in the experiment with MM.1S cells it was 100 to 300 nM. At GSPT1, the “GSPT1 substrate protein remaining %” value was “A (0% ≤ substrate protein remaining % ≤80%)”. For the same compound, the “IKZF1 substrate protein remaining %” value on IKZF1 was “A (0% ≤ substrate protein remaining % ≤80%)”. Further, the “IKZF3 substrate protein remaining %” value at IKZF3 is “B (80%< substrate protein remaining % ≤100%)”. Further, the “CK1α substrate protein remaining %” value on CK1α is “A (0% ≤ substrate protein remaining % ≤80%)”. Besides, the “WEE1 substrate protein remaining %” value on WEE1 is given as “A (0% ≤ substrate protein remaining % ≤80%)”. Also, the “IKZF2 substrate protein remaining %” value on IKZF2 was “B (80%< substrate protein remaining % ≤100%)”.

`O=C1CCN(N2Cc3cc(CN4CC=C(c5ccsc5)CC4)ccc3C2=O)C(=O)N1` [GT-04871, 1-(1-oxo-5-((4-(thiophen-3-yl)-3,6-dihydropyridin-1(2H)-yl)methyl)isoindolin-2-yl)dihydropyrimidine-2,4(1H,3H)-dione]: the IC50 was in the range of 300 to 500 nM with MGC803 cells, 300 to 500 nM in the experiment on Jurkat cells and 100 to 300 nM in the experiment with MM.1S cells. Moreover, the “GSPT1 substrate protein remaining %” value on GSPT1 is given as “A (0% ≤ substrate protein remaining % ≤80%)”. For the same compound, the “IKZF1 substrate protein remaining %” value at IKZF1 is listed as “A (0% ≤ substrate protein remaining % ≤80%)”. Besides, the “IKZF3 substrate protein remaining %” value on IKZF3 is recorded as “B (80%< substrate protein remaining % ≤100%)”. For the same compound, the “CK1α substrate protein remaining %” value at CK1α is on record as “B (80%< substrate protein remaining % ≤100%)”. On WEE1, the “WEE1 substrate protein remaining %” value was “A (0% ≤ substrate protein remaining % ≤80%)”. Further, the “IKZF2 substrate protein remaining %” value on IKZF2 is listed as “B (80%< substrate protein remaining % ≤100%)”.

For the compound `O=C1CCN(N2Cc3cc(CN4CCN(C(c5ccccc5)c5ccccc5)CC4)ccc3C2=O)C(=O)N1` [GT-04889, 1-(5-((4-benzhydrylpiperazin-1-yl)methyl)-1-oxoisoindolin-2-yl)dihydropyrimidine-2,4(1H,3H)-dione], the IC50 lay within 300 to 500 nM in the experiment on MGC803 cells, 300 to 500 nM in the experiment on Jurkat cells and 100 to 300 nM in the experiment on MM.1S cells. The “GSPT1 substrate protein remaining %” value on GSPT1 is on record as “A (0% ≤ substrate protein remaining % ≤80%)”. For the same compound, at IKZF1, the “IKZF1 substrate protein remaining %” value is reported as “A (0% ≤ substrate protein remaining % ≤80%)”. In addition, the “IKZF3 substrate protein remaining %” value at IKZF3 is “A (0% ≤ substrate protein remaining % ≤80%)”. The “CK1α substrate protein remaining %” value at CK1α was “B (80%< substrate protein remaining % ≤100%)”. In addition, at WEE1, the “WEE1 substrate protein remaining %” value is on record as “A (0% ≤ substrate protein remaining % ≤80%)”. At IKZF2, the “IKZF2 substrate protein remaining %” value is listed as “A (0% ≤ substrate protein remaining % ≤80%)”.

Turning to `O=C1CCN(N2Cc3cc(CN4CCN(c5cccc6sccc56)CC4)ccc3C2=O)C(=O)N1` [GT-04866, 1-(5-((4-(benzo[b]thiophen-4-yl)piperazin-1-yl)methyl)-1-oxoisoindolin-2-yl)dihydropyrimidine-2,4(1H,3H)-dione], the IC50 with MGC803 cells was 300 to 500 nM; in the experiment on Jurkat cells it was 300 to 500 nM; in the experiment with MM.1S cells it was 100 to 300 nM. In addition, the “GSPT1 substrate protein remaining %” value on GSPT1 is on record as “A (0% ≤ substrate protein remaining % ≤80%)”. For the same compound, the “IKZF1 substrate protein remaining %” value on IKZF1 is “A (0% ≤ substrate protein remaining % ≤80%)”. The “IKZF3 substrate protein remaining %” value on IKZF3 is reported as “B (80%< substrate protein remaining % ≤100%)”. Moreover, the “CK1α substrate protein remaining %” value at CK1α was “B (80%< substrate protein remaining % ≤100%)”. Besides, at WEE1, the “WEE1 substrate protein remaining %” value is “A (0% ≤ substrate protein remaining % ≤80%)”. Moreover, the “IKZF2 substrate protein remaining %” value on IKZF2 is listed as “B (80%< substrate protein remaining % ≤100%)”.
